According to patent publication US8076346B2 (priority 2000, dated 2011):

Legend:
[1] = Pharmacokinetics of DPB after oral DPB or NaDPB and IV NaDPB in Beagle dogs; format: in vivo; settings: for AUC(0-t): Beagle, 75 mg/kg
Description: (§1) In accordance with the present invention, pharmacokinetic parameters were calculated using standard non-compartmental methods, as implemented in WinNonlin™ 4.0.1. […] The mean, SD and CV (%) were used to calculate the AUC0-t (μg·h/mL), C. (μg/ml) (the maximum observed concentration), Tmax (hours) (the time to reach that peak concentration) and Kel (the elimination rate constant) for each animal and each analyte.
(§2) AUC0-t was calculated using the linear trapezoidal rule, which employs an approximate integration formula. The area of each trapezoid was calculated, and the sum of all the areas of all the trapezoids yielded an estimate of the true area under the curve. (See, Gibaldi et al. Pharmacokinetics. 2nd Ed. Marcel Dekker, Inc., 1982; Yeh et al., A comparison of numerical integrating algorithms by trapezoidal, lagrange, and spline approximations. J. Pharmacokinet Biopharm. 6: 79 (1978), the disclosure of which is herein incorporated by reference.) Cmax and Tmax were then determined for each concentration vs. time profile. Elimination rate constant (Kel) was calculated using regression analyses on the natural log (ln) of plasma concentration values (y) versus time (x).
We examined the delivery of DPB to the vascular compartment by administrating directly DPB and compared it with the sodium salt of DPB in dogs. This study compared the pharmacokinetics of DPB after oral administration of a single dose of DPB (75 mg/kg) or sodium salt of DPB (75 mg/kg) in Beagle dogs. Twenty-eight Beagle dogs were administered DPB and sodium salt of DPB by a single oral gavage (n=24). Blood samples were obtained pre-dose and 0.5, 1, 2, 3, 4, 6, 12, 18, 24, 36 and 48 hours after dosing. DPB was quantified in plasma using HPLC (LLOQ=0.25 μg/mL).
(§3) We calculated AUC0-t for DPB at various times (24, 36 and 48 hours) after oral administrations of DPB and sodium salt of DPB.

[2] = Pharmacokinetics of DPB after oral DPB or NaDPB and IV NaDPB in Sprague-Dawley rats; format: in vivo; settings: for AUC(0-t): Sprague-Dawley, 150 mg/kg; for AUC(0-t) / Cmax / Tmax / half-life / bioavailability: rat, in vivo; for bioavailability: read-out: F (absolute bioavailability)
Description: as §1, §2
We examined the delivery of DPB to the vascular compartment by administrating directly DPB and compared it with the sodium salt of DPB. This study compared the pharmacokinetics of DPB after oral administration of DPB (150 mg/kg) and sodium salt of DPB (150 mg/kg) in rats. Fifty-four rats were administered DPB and sodium salt of DPB by a single oral gavage (n=54). Blood samples were obtained (approximately 0.5 mL each) were collected following each treatment from animal via the jugular vein. Blood samplings from groups of 3 rats/sex/time point were collected at various times after dosing, in order to provide the complete time-points of pre-dose, 0, 0.5, 1, 2, 3, 4, 6, 12, 18, 24, 36 and 48 hours after dosing. Each blood sample was collected into a tube containing lithium heparin and the samples were spun in a refrigerated centrifuge. The resultant plasma was stored at −80° C. prior to analysis. DPB was quantified in plasma using HPLC (LLOQ=0.25 μg/mL).
as §3

[3] = Brain concentration of DPB after oral DPB or NaDPB and IV NaDPB in Sprague-Dawley rats; format: in vivo; settings: for concentration at 18 h / concentration at 24 h / concentration at 36 h / concentration at 48 h: rat, in vivo
Description: In this study, we measured the brain concentration of DPB. Brains were collected as soon as possible after euthanasia from each rat. They were stored in a freezer at −80° C. prior to determination of DPB brain tissue concentrations. Table 6 summarizes the brain concentrations of DPB after oral administration of DPB and sodium salt of DPB in Sprague-Dawley rats.

[4] = test system: seizure induced either by electroshock or pentylenetetrazole; settings: mice, given by stomach tube; cited from earlier work
in vivo = settings: dog, analyte MMMDPB
Description: as §1, §2
Blood samples were obtained pre-dose and 0.25, 0.5, 1, 2, 3, 4, 6, 9, 12, 15, 18, and 24 hours after dosing. Venous blood (˜1 mL) were drawn and collected in lithium heparin (anticoagulant). Blood samples were spun in a refrigerated centrifuge and plasma were stored at −80° C. prior to analysis. […] Calibration curves were obtained using a weighted (1/C^2) least squares linear regression analysis of peak area ratio (analyte/internal standard) versus the nominal concentration of the calibration standards. Concentrations were obtained by interpolation from the run defined calibration curve. Regressions and figures were generated by PE Sciex Analyst Version 1.2 software.
Plasma samples were thawed and subjected to solid phase extraction with 2 mL acetonitrile prior to HPLC method with Tandem Mass Spectrometry Detection. Chromatographic conditions were performed as followed: […]

[5] = dog, in vivo, po, oral 75 mg/kg, analyte DPB in plasma, read-out: AUC0-t
[6] = dog, in vivo, po, oral 75 mg/kg, analyte DPB, read-out: AUC0-24
[7] = dog, in vivo, po, oral 75 mg/kg, analyte DPB, read-out: AUC0-36
[8] = dog, in vivo, po, oral 75 mg/kg, analyte DPB, read-out: AUC0-48
[9] = dog, in vivo, IV infusion 75 mg/kg, analyte DPB in plasma
[10] = dog, in vivo, oral 75 mg/kg, analyte DPB in plasma
[11] = oral 75 mg/kg, relative to oral DPB free acid
[12] = female, po, Sprague-Dawley rats, female, oral 150 mg/kg, analyte DPB in plasma, read-out: AUC0-t
[13] = female, po, female, oral 150 mg/kg, analyte DPB, read-out: AUC0-36
[14] = female, po, female, oral 150 mg/kg, analyte DPB, read-out: AUC0-48
[15] = male, po, Sprague-Dawley rats, male, oral 150 mg/kg, analyte DPB in plasma, read-out: AUC0-t
[16] = male, po, male, oral 150 mg/kg, analyte DPB, read-out: AUC0-36
[17] = male, po, male, oral 150 mg/kg, analyte DPB, read-out: AUC0-48
[18] = Sprague-Dawley rats, female, IV infusion 150 mg/kg, analyte DPB in plasma
[19] = Sprague-Dawley rats, female, oral 150 mg/kg, analyte DPB in plasma
[20] = Sprague-Dawley rats, male, IV infusion 150 mg/kg, analyte DPB in plasma
[21] = Sprague-Dawley rats, male, oral 150 mg/kg, analyte DPB in plasma

## O=C1NC(=O)C(c2ccccc2)(c2ccccc2)C(=O)N1.[Na] [NaDPB, sodium 5,5-diphenyl barbiturate]
[1]; dog, in vivo, iv, IV infusion 75 mg/kg, analyte DPB in plasma, read-out: AUC0-t
  AUC(0-t): 1570 µg·h/mL
[1]; dog, in vivo, iv, IV infusion 75 mg/kg, analyte DPB, read-out: AUC0-24
  AUC(0-t): 1410 µg·h/mL
[1]; dog, in vivo, iv, IV infusion 75 mg/kg, analyte DPB, read-out: AUC0-36
  AUC(0-t): 1600 µg·h/mL
[1]; dog, in vivo, iv, IV infusion 75 mg/kg, analyte DPB, read-out: AUC0-48
  AUC(0-t): 1620 µg·h/mL
[1]; [5]
  AUC(0-t): 883 µg·h/mL
[1]; [6]
  AUC(0-t): 883 µg·h/mL
[1]; [7]
  AUC(0-t): 962 µg·h/mL
[1]; [8]
  AUC(0-t): 962 µg·h/mL
[1]; [9]
  Cmax: 95.7 µg/mL
  Tmax: 0.5 h
  half-life: 6 h
[1]; dog, in vivo, oral 75 mg/kg vs IV 75 mg/kg, read-out: absolute bioavailability of DPB
  bioavailability: ~58%
[1]; [10]
  Cmax: 54.2 µg/mL
  Tmax: 7.8 h
  half-life: 5.9 h
[1]; [11]
  AUC0-t for DPB, increase versus oral DPB: ~4 fold
  Cmax for DPB, increase versus oral DPB: ~3 fold
[2]; Sprague-Dawley rats, female, oral 150 mg/kg, relative to oral DPB free acid
  AUC0-t for DPB, increase versus oral DPB: ~2 fold
[2]; female, iv, Sprague-Dawley rats, female, IV infusion 150 mg/kg, analyte DPB in plasma, read-out: AUC0-t
  AUC(0-t): 4330 µg·h/mL
[2]; female, iv, female, IV infusion 150 mg/kg, analyte DPB, read-out: AUC0-36
  AUC(0-t): 4760 µg·h/mL
[2]; [12]
  AUC(0-t): 4040 µg·h/mL
[2]; [13]
  AUC(0-t): 3130 µg·h/mL
[2]; [14]
  AUC(0-t): 4040 µg·h/mL
[2]; male, iv, Sprague-Dawley rats, male, IV infusion 150 mg/kg, analyte DPB in plasma, read-out: AUC0-t
  AUC(0-t): 4030 µg·h/mL
[2]; male, iv, male, IV infusion 150 mg/kg, analyte DPB, read-out: AUC0-36
  AUC(0-t): 4610 µg·h/mL
[2]; male, iv, male, IV infusion 150 mg/kg, analyte DPB, read-out: AUC0-48
  AUC(0-t): 5690 µg·h/mL
[2]; [15]
  AUC(0-t): 3410 µg·h/mL
[2]; [16]
  AUC(0-t): 2720 µg·h/mL
[2]; [17]
  AUC(0-t): 3410 µg·h/mL
[2]; [18]
  Cmax: 174 µg/mL
  Tmax: 2 h
  half-life: 26.8 h
[2]; [19]
  Cmax: 104 µg/mL
  Tmax: 12 h
  half-life: 32.9 h
[2]; Sprague-Dawley rats, female, oral 150 mg/kg, analyte DPB
  bioavailability: 87.7%
[2]; [20]
  Cmax: 184 µg/mL
  Tmax: 1 h
  half-life: 24.2 h
[2]; [21]
  Cmax: 86.9 µg/mL
  Tmax: 18 h
  half-life: 17.6 h
[2]; Sprague-Dawley rats, male, oral 150 mg/kg, analyte DPB
  bioavailability: 70.6%
[3]; female, IV infusion 150 mg/kg
  concentration at 18 h: 36100 ng/g
  concentration at 24 h: 40700 ng/g
  concentration at 36 h: 21900 ng/g
[3]; female, oral 150 mg/kg
  concentration at 24 h: 25800 ng/g
  concentration at 36 h: 28400 ng/g
[3]; female, oral 150 mg/kg, 48 hr
  concentration at 48 h: 14900 ng/g
[3]; male, IV infusion 150 mg/kg
  concentration at 18 h: 41200 ng/g
  concentration at 24 h: 35600 ng/g
  concentration at 36 h: 27500 ng/g
[3]; male, oral 150 mg/kg
  concentration at 24 h: 29900 ng/g
  concentration at 36 h: 23600 ng/g
[3]; male, oral 150 mg/kg, 48 hr
  concentration at 48 h: 9460 ng/g

## O=C1NC(=O)C(c2ccccc2)(c2ccccc2)C(=O)N1 [DPB, 5,5-diphenyl barbituric acid, reference compound]
[1]; [5]
  AUC(0-t): 222 µg·h/mL
[1]; [6]
  AUC(0-t): 231 µg·h/mL
[1]; [7]
  AUC(0-t): 234 µg·h/mL
[1]; [8]
  AUC(0-t): 234 µg·h/mL
[1]; [10]
  Cmax: 18.7 µg/mL
  Tmax: 6.5 h
  half-life: 4 h
[4]
  protection from seizure: effective
[2]; [12]
  AUC(0-t): 1950 µg·h/mL
[2]; [13]
  AUC(0-t): 1600 µg·h/mL
[2]; [14]
  AUC(0-t): 1950 µg·h/mL
[2]; [15]
  AUC(0-t): 776 µg·h/mL
[2]; [16]
  AUC(0-t): 757 µg·h/mL
[2]; [17]
  AUC(0-t): 776 µg·h/mL
[2]; [19]
  Cmax: 74 µg/mL
  Tmax: 12 h
  half-life: 33.2 h
[2]; [21]
  Cmax: 38.3 µg/mL
  Tmax: 6 h
  half-life: 6.6 h
[3]; male, oral 150 mg/kg, 48 hr
  Mean brain concentration of DPB: BQL

## COCN1C(=O)NC(=O)C(c2ccccc2)(c2ccccc2)C1=O [MMMDPB, monomethoxymethyl-5,5-diphenyl barbituric acid, reference compound]
In vivo; Beagle, Beagle dogs, oral 30 mg/kg vs IV 15 mg/kg, read-out: F (absolute bioavailability)
  bioavailability: 107%
In vivo; Beagle, po, 30 mg/kg, mean oral bioavailability of MMMDPB, Beagle dogs, oral 30 mg/kg, mean
  bioavailability: 107%
In vivo; Beagle, po, 30 mg/kg, oral bioavailability of MMMDPB, range, Beagle dogs, oral 30 mg/kg, range over animals
  bioavailability: 43 to 177%

## COCN1C(=O)NC(=O)C(c2ccccc2)(c2ccccc2)C1=O.[Na] [NaMMMDPB, sodium monomethoxymethyl-5,5-diphenyl barbiturate]
In vivo; in vivo, 30 mg/kg, oral 30 mg/kg vs IV 15 mg/kg, read-out: F (absolute bioavailability)
  bioavailability: 60%
In vivo; in vivo, po, 30 mg/kg, mean oral bioavailability of MMMDPB, oral 30 mg/kg, mean
  bioavailability: 60%
In vivo; in vivo, po, 30 mg/kg, oral bioavailability of MMMDPB, range, oral 30 mg/kg, range over animals
  bioavailability: 34 to 99%
